The source of these data is patent US12679878B2, “CRF2 receptor agonists and their use in therapy” (SANOFI, priority 2020, dated 2026).

Holding throughout (type): cell-based
The target in experiment [1] is T1, human CRF2α receptor (Homo sapiens, UniProt Q13324).
T1 construct: expressed in transfected cells; host or cells: TeloHEAC
T1 sequence (Q13324 1-411): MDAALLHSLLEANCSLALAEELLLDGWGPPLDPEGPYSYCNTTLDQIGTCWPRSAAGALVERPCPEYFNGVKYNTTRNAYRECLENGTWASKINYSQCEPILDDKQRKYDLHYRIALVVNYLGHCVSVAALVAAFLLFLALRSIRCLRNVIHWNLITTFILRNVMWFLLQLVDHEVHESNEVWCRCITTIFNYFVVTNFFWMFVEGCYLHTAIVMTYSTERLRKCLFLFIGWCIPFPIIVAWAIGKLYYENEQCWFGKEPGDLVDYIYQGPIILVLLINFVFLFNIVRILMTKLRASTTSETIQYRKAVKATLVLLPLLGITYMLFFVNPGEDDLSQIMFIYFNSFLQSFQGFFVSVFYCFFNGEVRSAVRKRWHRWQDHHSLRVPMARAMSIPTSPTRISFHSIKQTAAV
Description: cAMP agonism at human CRF2 α receptor in TeloHEAC cells (Example 7). To be noted: cAMP HTRF, TeloHEAC cells stably expressing human CRF2 α, 0% HSA; read-out: EC50 [nM], 0% HSA. The gist of the method:
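Steps: thaw and wash cells; suspend in 1×HBSS, 20 mM HEPES, 0 or 0.1% HSA, 2 mM IBMX; add compound, 30 min RT; lyse with HTRF reagents, 1 h; read 665/620 nm. EC50 calculated, E% versus 1000 nM UCN2.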
(In general: In TR-FRET formats the signal depends on donor and acceptor labels being close together.)

Experiment [2] has as its system rat CRF2R α receptor. The experiment is described as follows: cAMP agonism at rat CRF2R α receptor in A7R5 rat aortic smooth muscle cells (Example 8). To be noted: cAMP HTRF, A7R5 rat aortic smooth muscle cell line, 0% HSA. The gist of the method:
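Potency (EC50) is the concentration reaching half-maximal activation, with responses scaled so that 1000 nM urocortin 2 equals 100%. Intracellular cAMP was quantified by homogeneous time-resolved fluorescence at 665/620 nm, 1 h after lysis-buffer reagents. Compound stimulation lasted 30 min at room temperature on 2000 IBMX-treated (2 mM) cells per well in HEPES-buffered HBSS.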

For experiment [3], the target named is T2, CRF1R receptor (Homo sapiens, UniProt P34998).
T2 construct: host or cells: CHO-K1 clone 2
T2 sequence (P34998 24-415): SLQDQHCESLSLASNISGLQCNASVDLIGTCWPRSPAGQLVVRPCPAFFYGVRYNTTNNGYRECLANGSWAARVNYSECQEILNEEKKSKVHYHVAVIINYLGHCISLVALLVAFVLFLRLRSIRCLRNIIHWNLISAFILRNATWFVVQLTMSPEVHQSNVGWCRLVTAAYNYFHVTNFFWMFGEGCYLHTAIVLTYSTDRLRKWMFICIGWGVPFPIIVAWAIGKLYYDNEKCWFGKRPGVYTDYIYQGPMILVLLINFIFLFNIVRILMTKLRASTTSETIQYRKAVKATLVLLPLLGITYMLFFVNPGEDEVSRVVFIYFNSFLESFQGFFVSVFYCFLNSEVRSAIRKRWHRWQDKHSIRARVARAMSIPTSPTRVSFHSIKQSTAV
Description: cAMP activity at anti-target CRF1R, CRF1R-overexpression CHO cell line (Example 9). To be noted: for EC50: 0% HSA. The gist of the method:
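Using thawed CRF1R-overexpressing CHO cells at 2000 per well, compound is applied for 30 min at RT in HBSS/HEPES buffer with IBMX. Cellular cAMP content is determined via HTRF, and percent activity is calculated against 1000 nM UCN2 defined as 100%.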

[4] abbreviates: CRF1R-overexpression CHO cell line.
Setting [5] is: CRF1R-overexpression CHO cell line, read-out: Emax (%).

Read-outs that look alike come from different tables or passages of the source. Starred links: 1 amine or outer side, 2 acyl side, 3 side chain; linkers in the order of their positions; H or OH if unused. Non-standard residues stand in square brackets, D forms with d. Residues, ends and D or L forms follow the SMILES beside them. Groups on a side chain read outwards from the residue. *: point of attachment. C20 diacid = O=C(O)CCCCCCCCCCCCCCCCCCC(=O)*; C18 diacid = O=C(O)CCCCCCCCCCCCCCCCC(=O)*; γGlu = O=C(O)[C@H](CCC(=O)[*:2])N[*:1]; AEEA = NCCOCCOCC(=O)O; Aib = CC(C)(N)C(=O)O

Consider `CC[C@H](C)[C@H](NC(=O)[C@H](CCC(N)=O)NC(=O)[C@H](CCCCNC(=O)COCCOCCNC(=O)COCCOCCNC(=O)CC[C@H](NC(=O)CCCCCCCCCCCCCCCCCCC(=O)O)C(=O)O)NC(=O)[C@H](CC(C)C)NC(=O)[C@H](CCCCN)NC(=O)[C@@H](NC(=O)[C@@H]1CCCN1C(=O)[C@@H](NC(=O)[C@H](CC(=O)O)NC(=O)[C@H](CC(C)C)NC(=O)[C@H](CO)NC(=O)[C@H](CC(C)C)NC(=O)[C@@H](NC(=O)[C@@H](N)Cc1ccccc1)[C@@H](C)O)C(C)C)[C@@H](C)CC)C(=O)N[C@@H](CC(C)C)C(=O)N[C@@H](CC(C)C)C(=O)N[C@@H](CCCCN)C(=O)N[C@@H](CCC(N)=O)C(=O)N[C@@H](CCC(N)=O)C(=O)N[C@@H](CCCCN)C(=O)N[C@@H](CCC(N)=O)C(=O)N[C@@H](CCCCN)C(=O)N[C@@H](CCCCN)C(=O)N[C@@H](CCC(=O)O)C(=O)N[C@@H](CCCNC(=N)N)C(=O)N[C@@H](CCC(N)=O)C(=O)N[C@@H](CCC(N)=O)C(=O)N[C@@H](C)C(=O)N[C@@H](CCC(=O)O)C(=O)N[C@H](C(=O)N[C@@H](CC(N)=O)C(=O)N[C@H](C(=O)N[C@@H](CCC(N)=O)C(=O)N[C@@H](CC(C)C)C(=O)N[C@@H](CC(C)C)C(=O)N[C@@H](CCC(=O)O)C(=O)N[C@@H](CCCNC(=N)N)C(=O)N[C@H](C(N)=O)C(C)C)C(C)C)[C@@H](C)O` [compound 62] (H-FTLSLDVPIKLK([AEEA-AEEA-γGlu-C20 diacid])QILLKQQKQKKERQQAETNVQLLERV-NH2), for which the values for the EC50 in experiment [1] and in experiment [2] were 0.8 nM and 2.9 nM, respectively. Besides, the Emax in experiment [3] (CHO) is 2.28%.

For the compound `CC[C@H](C)[C@H](NC(=O)[C@H](CCC(N)=O)NC(=O)[C@H](CCCCNC(=O)COCCOCCNC(=O)COCCOCCNC(=O)CC[C@H](NC(=O)CCCCCCCCCCCCCCCCCCC(=O)O)C(=O)O)NC(=O)[C@H](CC(C)C)NC(=O)[C@H](CCCCN)NC(=O)[C@@H](NC(=O)[C@@H]1CCCN1C(=O)[C@@H](NC(=O)[C@H](CC(=O)O)NC(=O)[C@H](CC(C)C)NC(=O)[C@H](CO)NC(=O)[C@H](CC(C)C)NC(=O)[C@@H](NC(=O)[C@@H](N)Cc1ccccc1)[C@@H](C)O)C(C)C)[C@@H](C)CC)C(=O)N[C@@H](CC(C)C)C(=O)N[C@@H](CC(C)C)C(=O)N[C@@H](CCC(=O)O)C(=O)N[C@@H](CCC(N)=O)C(=O)N[C@@H](CCC(N)=O)C(=O)N[C@@H](CCCCN)C(=O)N[C@@H](CCC(N)=O)C(=O)N[C@@H](CCCCN)C(=O)N[C@@H](CCCCN)C(=O)N[C@@H](CCC(=O)O)C(=O)N[C@@H](CCCNC(=N)N)C(=O)N[C@@H](CCC(N)=O)C(=O)N[C@@H](CCC(N)=O)C(=O)N[C@@H](C)C(=O)N[C@@H](CCC(=O)O)C(=O)N[C@H](C(=O)N[C@@H](CC(N)=O)C(=O)N[C@H](C(=O)N[C@@H](CCC(N)=O)C(=O)N[C@@H](CC(C)C)C(=O)N[C@@H](CC(C)C)C(=O)N[C@@H](CCC(=O)O)C(=O)N[C@@H](CCCNC(=N)N)C(=O)N[C@H](C(N)=O)C(C)C)C(C)C)[C@@H](C)O` [compound 63] (H-FTLSLDVPIKLK([AEEA-AEEA-γGlu-C20 diacid])QILLEQQKQKKERQQAETNVQLLERV-NH2), the results for the 50% effective concentration (EC50) in experiment [1], in experiment [2] and in experiment [3] (setting [4]) were 0.63 nM, 4.73 nM and over 1000 nM, respectively. Also, the Emax in experiment [3] (setting [5]) turned out to be 4.68%.

In the case of `CC[C@H](C)[C@H](N)C(=O)N[C@H](C(=O)N[C@@H](CC(C)C)C(=O)N[C@@H](CO)C(=O)N[C@@H](CC(C)C)C(=O)N[C@@H](CC(=O)O)C(=O)N[C@H](C(=O)N1CCC[C@H]1C(=O)N[C@H](C(=O)N[C@@H](CCCCN)C(=O)N[C@@H](CC(C)C)C(=O)N[C@@H](CCCCNC(=O)COCCOCCNC(=O)COCCOCCNC(=O)CC[C@H](NC(=O)CCCCCCCCCCCCCCCCC(=O)O)C(=O)O)C(=O)N[C@@H](CCCCN)C(=O)NC(C)(C)C(=O)N[C@@H](CC(C)C)C(=O)N[C@@H](CC(C)C)C(=O)N[C@@H](CCC(=O)O)C(=O)N[C@@H](CCC(N)=O)C(=O)N[C@@H](CCC(=O)O)C(=O)N[C@@H](CCCNC(=N)N)C(=O)N[C@@H](CCC(N)=O)C(=O)N[C@@H](CCCCN)C(=O)N[C@@H](CCCCN)C(=O)N[C@@H](CCC(N)=O)C(=O)N[C@@H](CCCNC(=N)N)C(=O)N[C@@H](CCC(=O)O)C(=O)N[C@@H](CCC(N)=O)C(=O)N[C@@H](C)C(=O)N[C@@H](CCC(=O)O)C(=O)N[C@H](C(=O)N[C@@H](CC(N)=O)C(=O)N[C@@H](CCCCN)C(=O)N[C@@H](CCC(N)=O)C(=O)N[C@H](C(=O)N[C@@H](CC(C)C)C(=O)N[C@@H](C)C(=O)N[C@@H](CCC(N)=O)C(=O)N[C@H](C(N)=O)C(C)C)[C@@H](C)CC)[C@@H](C)O)[C@@H](C)CC)C(C)C)C(C)C` [compound 69] (H-IVLSLDVPIKLK([AEEA-AEEA-γGlu-C18 diacid])K[Aib]LLEQERQKKQREQAETNKQILAQV-NH2; N-terminus assumed), the values for the EC50 in experiment [1], in experiment [2] and in experiment [3] (setting [4]) were 0.61 nM, 7.33 nM and over 1000 nM, respectively. Further, in experiment [3] (setting [5]), the Emax is 0.02%.

On to `CC[C@H](C)[C@H](N)C(=O)N[C@H](C(=O)N[C@@H](CC(C)C)C(=O)N[C@@H](CO)C(=O)N[C@@H](CC(C)C)C(=O)N[C@@H](CC(=O)O)C(=O)N[C@H](C(=O)N1CCC[C@H]1C(=O)N[C@H](C(=O)N[C@@H](CCCCN)C(=O)N[C@@H](CC(C)C)C(=O)N[C@@H](CCCCNC(=O)COCCOCCNC(=O)COCCOCCNC(=O)CC[C@H](NC(=O)CCCCCCCCCCCCCCCCC(=O)O)C(=O)O)C(=O)N[C@@H](CCC(N)=O)C(=O)N[C@H](C(=O)N[C@@H](CC(C)C)C(=O)N[C@@H](CC(C)C)C(=O)N[C@@H](CCC(=O)O)C(=O)N[C@@H](CCC(N)=O)C(=O)N[C@@H](CCC(=O)O)C(=O)N[C@@H](CCCNC(=N)N)C(=O)N[C@@H](CCC(N)=O)C(=O)N[C@@H](CCCCN)C(=O)N[C@@H](CCCCN)C(=O)N[C@@H](CCC(N)=O)C(=O)N[C@@H](CCCNC(=N)N)C(=O)N[C@@H](CCC(=O)O)C(=O)N[C@@H](CCC(N)=O)C(=O)N[C@@H](C)C(=O)N[C@@H](CCC(=O)O)C(=O)N[C@H](C(=O)N[C@@H](CC(N)=O)C(=O)NC(C)(C)C(=O)N[C@@H](CCC(N)=O)C(=O)N[C@H](C(=O)N[C@@H](CC(C)C)C(=O)N[C@@H](C)C(=O)N[C@@H](CCC(N)=O)C(=O)N[C@H](C(N)=O)C(C)C)[C@@H](C)CC)[C@@H](C)O)[C@@H](C)CC)[C@@H](C)CC)C(C)C)C(C)C` [compound 70] (H-IVLSLDVPIKLK([AEEA-AEEA-γGlu-C18 diacid])QILLEQERQKKQREQAETN[Aib]QILAQV-NH2; N-terminus assumed), for which the values for the EC50 in experiment [1], in experiment [2] and in experiment [3] (setting [4]) were 0.91 nM, 8.72 nM and over 1000 nM, respectively. In addition, the Emax in experiment [3] (setting [5]) was 3.03%.

Usually EC50 stands for the concentration at which the effect is half-maximal. As usually defined, the Emax is the maximal effect, on the per cent scale that the assay sets.
